The source of these data is US20250034108A1, “SODIUM CHANNEL BLOCKERS” (NOVARTIS AG, priority 2023, published 2025).

What all share (format): cell-based
Series [1] concerns the target T1, human Nav1.5 (Homo sapiens (Human), UniProt Q14524). Nature of the series: Qpatch automated patch-clamp, peak Nav1.5 current inhibition, 1 Hz sinus rate, ventricular condition (holding potential -100 mV). Conditions: CHO-K1 cells stably expressing human Nav1.5, without ATX-II. The text has this:
(§1) Electrophysiology was used to measure the ionic currents in isolated living cells using automated patch-clamp recording, performed using an automated patch-clamp machine called Qpatch (Sophion Bioscience). Two different assay conditions were used to identify compounds with atrial-selective potential. The 5-Hz AF-like assay has more depolarized holding potential at −85 mV to mimic atrial resting membrane potential (RMP) and was used to identify compounds of strong rate-dependence. Active, rate-dependent compounds were then screened at 1 Hz (i.e., sinus rate) at the holding potential of −100 mV to mimic the ventricular scenario and help identify compounds with the largest potency separation or attenuation from the 5-Hz AF-like assay. Such compounds have the potential for treating AF without the QRS liability inherent to Class Ic drugs.
(§2) The sodium current conducted through a cell (via Nav1.5) or electrical signals were processed through a low-pass filter at 5 KHz, re-digitalized and acquired at 20 kHz. Series resistance was not compensated and leak subtraction was performed.
(§3) 1 to 3 million Chinese Hamster Ovary cells (also known as CHO-K1) stably expressing human Nav1.5 were seeded into […] culture flasks with 25 mL medium (consisting of Gibco Dulbecco's Modified Eagle Medium as a base medium with 1% MEM non-essential amino acids, 400 μg/mL Geneticin, 5 μg/mL puromycin and 10% fetal bovine serum) 48-72 hours prior to the experiments. On the day of the experiment, cells were washed once with phosphate-buffered saline (also known as PBS; Gibco) detached with Detachin™ (Genlantis), and re-suspended in CHO—S-SFM II media (Gibco) at 200,000 cells/mL. The CHO—S-SFM II was replaced with assay solutions prior to the assays. Whole-cell currents were recorded at room temperature in the whole-cell configuration. The external aqueous assay solution (pH=7.4; Osm=307-315) contained the following (the concentration for each component is expressed in parentheses in mM): NaCl (140 mM), KCl (4 mM), CaCl2) (2 mM), MgCl2 (1 mM), 4-(2-hydroxyethyl)-1-piperazineethanesulfonic acid, also known as HEPES (10 mM), and glucose (5 mM). The internal aqueous assay solution (pH=7.2; Osm=292-295) contained the following (the concentration for each component is expressed in parentheses in mM): CsF (110 mM), CsCl (10 mM), NaCl (10 mM), HEPES (10 mM), and ethylene glycolbis(β-aminoethyl ether)-N,N,N′,N′-tetraacetic acid, also known as EGTA (10 mM).
(§4) To assess peak Nav1.5 current inhibition mimicking a ventricular condition at sinus rate with or without ATX-II (Nav1.5 IC50 (1 Hz, ATXII) (μM) or (1 Hz, Sinus Rate) (μM)), compounds were first prepared at 10 mM in DMSO, and cells were pre-incubated with test compounds at each concentration for 3 min. in an ascending order of 0, 0.37, 1.1, 3.3, 10 and 30 uM. In the assay with ATX-II (Alomone Labs), 50 nM ATX-II was included during the 3-min. compound incubation. A square pulse (−10 mV; 400 ms and a holding potential at −100 mV) was run at 1 Hz for 25 s until no further inhibition or Nav1.5 current change was observed. The percent inhibition (expressed as ([Iafter compound treatment/Ibefore compound treatment]×100%) is calculated by normalizing the peak current amplitude at the last pulse of each of the 6 compound concentrations by the amplitude before exposure to the test compound. The compiled data was further normalized by vehicle control (DMSO) to account for Nav1.5 current run-down, and IC50 was calculated by Matlab (MathWorks, USA).
On the technique in general: Patch clamp records ionic current or voltage across a cell membrane.

The target of series [2] is T1, human Nav1.5. Nature of the series: Qpatch automated patch-clamp, peak Nav1.5 current inhibition, 5-Hz AF-like assay (holding potential -85 mV). Conditions: CHO-K1 cells stably expressing human Nav1.5, holding potential -85 mV, Table 5, read-out: Nav1.5 IC50 (5 Hz, AF Rate). The essentials: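 CHO-K1 cells stably expressing human Nav1.5, whole-cell automated patch-clamp at room temperature, CsF-based internal. Compounds pre-incubated 3 min each at ascending 0-30 μM; +10 to −85 mV ramp (150 ms) applied at 5 Hz for 12 s from −85 mV holding. IC50 from last-pulse peak current, vehicle-normalized for run-down.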

Series [3] addresses T1, human Nav1.5. Nature of the series: Qpatch automated patch-clamp, peak Nav1.5 current inhibition, 1 Hz with 50 nM ATX-II (holding potential -100 mV). Conditions: CHO-K1 cells stably expressing human Nav1.5, read-out: Nav1.5 IC50 (1 Hz, ATXII).
From the text: as §1, §2, §3, §4

T1 sequence (Q14524 whole entry): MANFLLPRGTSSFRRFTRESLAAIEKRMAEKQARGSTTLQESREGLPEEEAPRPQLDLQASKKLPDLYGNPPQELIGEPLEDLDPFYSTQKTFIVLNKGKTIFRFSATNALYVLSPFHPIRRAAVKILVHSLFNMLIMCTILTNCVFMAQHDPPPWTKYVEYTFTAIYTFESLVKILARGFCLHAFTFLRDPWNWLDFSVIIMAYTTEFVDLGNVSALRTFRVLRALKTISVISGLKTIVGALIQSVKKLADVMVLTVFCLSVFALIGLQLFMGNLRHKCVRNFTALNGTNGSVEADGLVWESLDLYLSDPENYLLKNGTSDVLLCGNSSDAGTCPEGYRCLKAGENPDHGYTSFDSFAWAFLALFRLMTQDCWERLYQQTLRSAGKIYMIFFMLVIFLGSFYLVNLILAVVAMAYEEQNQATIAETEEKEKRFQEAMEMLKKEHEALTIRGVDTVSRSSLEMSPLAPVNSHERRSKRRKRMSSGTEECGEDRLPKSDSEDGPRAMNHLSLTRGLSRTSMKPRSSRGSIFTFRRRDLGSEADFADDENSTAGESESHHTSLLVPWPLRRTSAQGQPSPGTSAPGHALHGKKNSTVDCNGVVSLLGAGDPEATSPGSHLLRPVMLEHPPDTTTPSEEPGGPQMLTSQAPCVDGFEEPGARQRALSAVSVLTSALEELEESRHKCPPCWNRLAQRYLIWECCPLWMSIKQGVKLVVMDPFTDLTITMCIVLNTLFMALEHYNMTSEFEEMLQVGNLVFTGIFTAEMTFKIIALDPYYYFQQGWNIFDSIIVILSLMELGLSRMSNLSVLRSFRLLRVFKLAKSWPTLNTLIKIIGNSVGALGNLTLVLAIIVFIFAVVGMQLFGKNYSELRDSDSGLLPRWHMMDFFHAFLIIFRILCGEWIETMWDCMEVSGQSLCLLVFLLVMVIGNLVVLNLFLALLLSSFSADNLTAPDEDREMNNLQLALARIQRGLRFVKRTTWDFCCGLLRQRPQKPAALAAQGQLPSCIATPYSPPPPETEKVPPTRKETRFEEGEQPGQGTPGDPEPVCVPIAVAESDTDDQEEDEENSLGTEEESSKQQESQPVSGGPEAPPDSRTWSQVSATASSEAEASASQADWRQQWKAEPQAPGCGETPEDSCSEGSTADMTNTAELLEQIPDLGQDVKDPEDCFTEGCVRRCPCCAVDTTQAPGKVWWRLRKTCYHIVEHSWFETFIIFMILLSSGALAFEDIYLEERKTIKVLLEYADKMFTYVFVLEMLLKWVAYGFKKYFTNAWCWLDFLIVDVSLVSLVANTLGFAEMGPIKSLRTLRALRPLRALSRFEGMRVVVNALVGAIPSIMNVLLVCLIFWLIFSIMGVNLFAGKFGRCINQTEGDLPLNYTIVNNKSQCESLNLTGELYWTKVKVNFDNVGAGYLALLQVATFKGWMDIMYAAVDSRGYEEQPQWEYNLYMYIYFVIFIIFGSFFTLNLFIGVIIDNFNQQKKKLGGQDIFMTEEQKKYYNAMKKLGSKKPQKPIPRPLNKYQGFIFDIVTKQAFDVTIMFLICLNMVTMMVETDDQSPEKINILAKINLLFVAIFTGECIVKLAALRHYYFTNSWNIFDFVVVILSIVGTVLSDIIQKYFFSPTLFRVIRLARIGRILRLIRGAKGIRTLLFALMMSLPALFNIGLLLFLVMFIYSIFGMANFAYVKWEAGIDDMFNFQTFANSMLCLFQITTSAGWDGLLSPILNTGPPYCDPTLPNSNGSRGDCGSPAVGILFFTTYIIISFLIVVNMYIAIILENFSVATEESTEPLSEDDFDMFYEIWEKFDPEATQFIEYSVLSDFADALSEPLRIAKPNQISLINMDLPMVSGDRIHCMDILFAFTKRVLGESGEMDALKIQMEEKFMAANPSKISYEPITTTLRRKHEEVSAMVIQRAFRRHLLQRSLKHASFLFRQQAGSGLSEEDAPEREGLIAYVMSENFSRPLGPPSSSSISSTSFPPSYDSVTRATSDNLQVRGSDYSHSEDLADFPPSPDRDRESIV

The term IC50 denotes the concentration at which inhibition is half-maximal. Consider `CC(O)(CS(N)(=O)=O)c1cccc(-c2nnn(Cc3cc(OC(F)(F)F)ccc3F)n2)c1F` (single isomer, unassigned) [Example 11, (R or S)-2-(2-fluoro-3-(2-(2-fluoro-5-(trifluoromethoxy)benzyl)-2H-tetrazol-5-yl)phenyl)-2-hydroxypropane-1-sulfonamide], for which the IC50 in series [1] is 8.9 µM; in series [2] it was 1.7 µM; in series [3], 5.6 µM.

With `CC(C(O)c1cccc(-c2nnn(Cc3cc(OC(F)(F)F)ccc3F)n2)n1)S(N)(=O)=O` (single isomer, unassigned) [Example 52, (JR or 1S,2R or 2S)-1-(6-(2-(2-fluoro-5-(trifluoromethoxy)benzyl)-2H-tetrazol-5-yl)pyridin-2-yl)-1-hydroxypropane-2-sulfonamide], the results for the IC50 in series [1], in series [2] and in series [3] were 49 µM, 2.9 µM and 22 µM, respectively.

As for `CC(O)(CS(N)(=O)=O)c1cccc(-c2nnn(Cc3cc(OC4CC4)ccc3F)n2)n1` (single isomer, unassigned) [Example 46, (R or S)-2-(6-(2-(5-cyclopropoxy-2-fluorobenzyl)-2H-tetrazol-5-yl)pyridin-2-yl)-2-hydroxypropane-1-sulfonamide], the half-maximal inhibitory concentration (IC50) in series [1] is greater than 30 µM; in series [2] it was 8.3 µM; in series [3], greater than 30 µM.

As for `CC(O)(CS(N)(=O)=O)c1nc(-c2nnn(Cc3cc(OC(F)(F)F)ccc3F)n2)ccc1F` (single isomer, unassigned) [Example 45, (R or S)-2-(3-fluoro-6-(2-(2-fluoro-5-(trifluoromethoxy)benzyl)-2H-tetrazol-5-yl)pyridin-2-yl)-2-hydroxypropane-1-sulfonamide], the values for the IC50 in series [1], in series [2] and in series [3] were greater than 30 µM, 4.8 µM and greater than 30 µM, respectively.

Consider `CC(C(C)(O)c1cccc(-c2nnn(Cc3cc(OC(F)(F)F)ccc3F)n2)n1)S(N)(=O)=O` (single isomer, unassigned) [Example 15, (2R or 2S,3R or 3S)-3-(6-(2-(2-fluoro-5-(trifluoromethoxy)benzyl)-2H-tetrazol-5-yl)pyridin-2-yl)-3-hydroxybutane-2-sulfonamide], for which the IC50 in series [1] is greater than 30 µM; in series [2], 4.1 µM; in series [3], 24 µM.

`CC(O)(CS(N)(=O)=O)c1cc(F)cc(-c2nnn(Cc3cc(OC(F)(F)F)ccc3F)n2)c1` (single isomer, unassigned) [Example 24, (R or S)-2-(3-fluoro-5-(2-(2-fluoro-5-(trifluoromethoxy)benzyl)-2H-tetrazol-5-yl)phenyl)-2-hydroxypropane-1-sulfonamide]: the values for the half-inhibitory concentration (IC50) in series [1], in series [2] and in series [3] were greater than 30 µM, 2 µM and 7.8 µM, respectively.

In the case of `CC(O)(CS(N)(=O)=O)c1cccc(-c2ncn(Cc3cc(OC(F)(F)F)ccc3F)n2)n1` (single isomer, unassigned) [Example 56, (R or S)-2-(6-(1-(2-fluoro-5-(trifluoromethoxy)benzyl)-1H-1,2,4-triazol-3-yl)pyridin-2-yl)-2-hydroxypropane-1-sulfonamide], the IC50 in series [1] is greater than 30 µM; in series [2], 16 µM.

For the molecule `CC(C(C)(O)c1cccc(-c2nnn(Cc3cc(OC(F)(F)F)ccc3F)n2)n1)S(N)(=O)=O` (single isomer, unassigned) [Example 13, (2R or 2S, 3R or 3S)-3-(6-(2-(2-fluoro-5-(trifluoromethoxy)benzyl)-2H-tetrazol-5-yl)pyridin-2-yl)-3-hydroxybutane-2-sulfonamide], the IC50 in series [1] was 12 µM; in series [2], 4.3 µM; in series [3], greater than 30 µM.

As to `CC(O)(CS(N)(=O)=O)c1cccc(-c2ncn(Cc3cc(OC(F)(F)F)ccc3F)n2)n1` (single isomer, unassigned) [Example 55, (R or S)-2-(6-(1-(2-fluoro-5-(trifluoromethoxy)benzyl)-1H-1,2,4-triazol-3-yl)pyridin-2-yl)-2-hydroxypropane-1-sulfonamide], the IC50 is greater than 30 µM in series [1] and 19 µM in series [2].

For the molecule `CC(O)(CS(N)(=O)=O)c1cccc(-c2nnn(Cc3cccc(C(F)(F)F)c3)n2)n1` (single isomer, unassigned) [Example 40, (R or S)-2-hydroxy-2-(6-(2-(3-(trifluoromethyl)benzyl)-2H-tetrazol-5-yl)pyridin-2-yl)propane-1-sulfonamide], the IC50 in series [1] was greater than 30 µM; in series [2], 21 µM.

`CC(c1cccc(-c2nnn(Cc3cc(OC(F)(F)F)ccc3F)n2)n1)C(CO)S(N)(=O)=O` (single isomer, unassigned) [Example 32, (2R or 2S,3R or 3S)-3-(6-(2-(2-fluoro-5-(trifluoromethoxy)benzyl)-2H-tetrazol-5-yl)pyridin-2-yl)-1-hydroxybutane-2-sulfonamide]: the IC50 in series [1] was 28 µM; in series [2], 2.7 µM.

As to `CC(c1cccc(-c2nnn(Cc3cc(OC(F)(F)F)ccc3F)n2)n1)C(CO)S(N)(=O)=O` (single isomer, unassigned) [Example 31, (2R or 2S, 3R or 3S)-3-(6-(2-(2-fluoro-5-(trifluoromethoxy)benzyl)-2H-tetrazol-5-yl)pyridin-2-yl)-1-hydroxybutane-2-sulfonamide], the figures for the IC50 in series [1] and in series [2] were 7.8 µM and 1.1 µM, respectively.

On to `CC(C(O)c1cccc(-c2nnn(Cc3cc(OC(F)(F)F)ccc3F)n2)n1)S(N)(=O)=O` (single isomer, unassigned) [Example 51, (JR or 1S,2R or 2S)-1-(6-(2-(2-fluoro-5-(trifluoromethoxy)benzyl)-2H-tetrazol-5-yl)pyridin-2-yl)-1-hydroxypropane-2-sulfonamide], for which the IC50 in series [1] is greater than 30 µM; in series [2] it was 25 µM.

Consider `CC(O)(CS(N)(=O)=O)c1cccc(-c2nnn(Cc3c(F)ccc4c3OC(F)(F)O4)n2)n1` (single isomer, unassigned) [Example 3, (R or S)-2-hydroxy-2-(6-(2-((2,2,5-trifluorobenzo[d][1,3]dioxol-4-yl)methyl)-2H-tetrazol-5-yl)pyridin-2-yl)propane-1-sulfonamide], for which the IC50 is greater than 30 µM in series [1] and 7.5 µM in series [2].

For the molecule `CC(O)(CS(N)(=O)=O)c1cccc(-c2nnn(Cc3cccc(C(F)(F)F)c3)n2)n1` (single isomer, unassigned) [Example 41, (R or S)-2-hydroxy-2-(6-(2-(3-(trifluoromethyl)benzyl)-2H-tetrazol-5-yl)pyridin-2-yl)propane-1-sulfonamide], the IC50 in series [1] and in series [2] was greater than 30 µM throughout.

As for `CC(O)(CS(N)(=O)=O)c1cccc(-c2nnn(Cc3c(F)ccc4c3OC(F)(F)O4)n2)n1` (single isomer, unassigned) [Example 4, (R or S)-2-hydroxy-2-(6-(2-((2,2,5-trifluorobenzo[d][1,3]dioxol-4-yl)methyl)-2H-tetrazol-5-yl)pyridin-2-yl)propane-1-sulfonamide], the values for the IC50 in series [1] and in series [2] were greater than 30 µM and 6.7 µM, respectively.
